The values that follow come from PubChem BioAssay (NCI).

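Following 48 hours of exposure in 96-well plates, responses at five concentrations were used to interpolate endpoints linearly. The concentration for full growth arrest is given as TGI.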 Where a SMILES comes first, the peptide text is derived from it. The star is where a group is joined. Fmoc = O=C(OCC1c2ccccc2-c2ccccc21)*; Boc = CC(C)(C)OC(=O)*

Some test systems named below: SK-MEL-28 melanoma; LOX IMVI melanoma; T-47D breast; SNB-19 CNS; BT-549 breast; COLO 205 colon; A549 NSCLC; ACHN renal; EKVX NSCLC; U251 CNS; NCI-H522 lung; OVCAR-3 ovarian; TK-10 renal; HCT-15 colon; SN12C renal; NCI-H23 lung; A498 renal; MCF7 breast; HT29 colon; HL-60(TB) leukemia.
What all share (experiment): growth of human tumour cells (NCI), 48 h

For `CC(=O)N(O)[C@@H]1CC[C@H](n2cnc3c(N)ncnc32)C1`, the TGI in the experiment with SK-MEL-28 melanoma, in the experiment on LOX IMVI melanoma, in the experiment with T-47D breast, with SNB-19 CNS, in the experiment on BT-549 breast and in the experiment on COLO 205 colon was above 100 µM throughout. Moreover, the TGI in the experiment on A549 NSCLC, with ACHN renal, in the experiment on EKVX NSCLC, with U251 CNS, with NCI-H522 lung and in the experiment on OVCAR-3 ovarian was above 100 µM in each case. Besides, the TGI in the experiment on TK-10 renal, in the experiment with HCT-15 colon, in the experiment on SN12C renal, with NCI-H23 lung, with A498 renal and in the experiment with MCF7 breast was above 100 µM throughout.
For the compound `O=c1[nH]c(=O)n(C2CC(O)C(CO)O2)cc1C1=NC1` (centres undefined), the TGI with SK-MEL-28 melanoma, in the experiment with T-47D breast, in the experiment on SNB-19 CNS, with HT29 colon, in the experiment on BT-549 breast and in the experiment on COLO 205 colon was above 100 µM in each case. Further, the TGI with A549 NSCLC, with ACHN renal, in the experiment on EKVX NSCLC, in the experiment with U251 CNS, with OVCAR-3 ovarian and with TK-10 renal was above 100 µM each time. Moreover, the TGI with HCT-15 colon, in the experiment on SN12C renal, in the experiment on NCI-H23 lung, with A498 renal and with MCF7 breast was above 100 µM throughout.
On to `COc1ccc2sc(-n3nc4ccccc4c3Nc3nc4ccc(OC)cc4s3)nc2c1`, for which the TGI in the experiment with SK-MEL-28 melanoma turned out to be 26.5 µM; in the experiment on LOX IMVI melanoma it was 24.3 µM; in the experiment on T-47D breast, 5.64 µM; in the experiment with SNB-19 CNS, 9.26 µM; in the experiment with HT29 colon, 14.7 µM; in the experiment with BT-549 breast it was 14 µM. The TGI in the experiment with COLO 205 colon is above 63.9 µM; in the experiment with A549 NSCLC it was 18.5 µM; in the experiment on ACHN renal it was 11.2 µM; with EKVX NSCLC it was 19.3 µM; in the experiment with U251 CNS, 11 µM; in the experiment with NCI-H522 lung, 17.2 µM. Moreover, the TGI was 7.45 µM in the experiment with OVCAR-3 ovarian; 11.8 µM in the experiment on TK-10 renal; above 72.1 µM in the experiment on HCT-15 colon; 18.5 µM in the experiment on SN12C renal; 5.25 µM in the experiment on NCI-H23 lung; 5.63 µM in the experiment with A498 renal. For the same compound, the TGI in the experiment on MCF7 breast stood at 42 µM.
As to `CC(C)(C)OC(=O)NCCCCC(NC(=O)OCC1c2ccccc2-c2ccccc21)C(=O)N1CCCC1C(=O)NCC(N)=O` (stereo not drawn) (Fmoc-Lys(Boc)-Pro-Gly-NH2; configuration not given here), the TGI in the experiment with SK-MEL-28 melanoma was above 100 µM; with LOX IMVI melanoma, 40 µM; in the experiment on T-47D breast, above 100 µM; with SNB-19 CNS it was above 100 µM; with HT29 colon, above 100 µM; in the experiment on BT-549 breast, above 100 µM. In addition, the TGI with COLO 205 colon is 99.2 µM; with HL-60(TB) leukemia, above 100 µM; with A549 NSCLC it was above 100 µM; in the experiment with ACHN renal it was 34.6 µM; in the experiment on EKVX NSCLC, above 100 µM; in the experiment on U251 CNS, 33.1 µM. For the same compound, the TGI was above 100 µM with OVCAR-3 ovarian; above 100 µM with TK-10 renal; 30.1 µM in the experiment on HCT-15 colon; 30.2 µM with SN12C renal; above 100 µM with NCI-H23 lung; above 100 µM in the experiment on MCF7 breast.
For the compound `O=c1[nH]c(Nc2cc(Cl)cc(Cl)c2)nc2nc[nH]c12`, the TGI in the experiment on LOX IMVI melanoma, with T-47D breast, with SNB-19 CNS, with HT29 colon, in the experiment with BT-549 breast and in the experiment on COLO 205 colon was above 75 µM in each case. The TGI in the experiment with A549 NSCLC, in the experiment with ACHN renal, in the experiment with EKVX NSCLC, with U251 CNS, in the experiment on OVCAR-3 ovarian and with TK-10 renal was above 75 µM in each case. Also, the TGI in the experiment on HCT-15 colon, in the experiment on SN12C renal, with NCI-H23 lung and in the experiment with MCF7 breast was above 75 µM in each case.
Take `CSCCCNC(=O)c1csc(-c2csc(C(CNC(=O)OC(C)(C)C)CNC(=O)OC(C)(C)C)n2)n1`: the TGI in the experiment with LOX IMVI melanoma, in the experiment with T-47D breast, with SNB-19 CNS, with BT-549 breast, in the experiment on COLO 205 colon and with ACHN renal was above 100 µM throughout. In addition, the TGI in the experiment with EKVX NSCLC was above 100 µM; with U251 CNS, 71.5 µM; in the experiment on NCI-H522 lung, 94.5 µM; in the experiment on OVCAR-3 ovarian it was above 100 µM; in the experiment on TK-10 renal, above 100 µM; in the experiment on HCT-15 colon it was above 100 µM. Besides, the TGI with SN12C renal, with NCI-H23 lung, in the experiment on A498 renal and in the experiment on MCF7 breast was above 100 µM throughout.
`CCOc1ccc(/C=N/[N+](C)(C)C)cc1OCC`: the TGI in the experiment on SK-MEL-28 melanoma, in the experiment with LOX IMVI melanoma, with T-47D breast, with SNB-19 CNS, in the experiment on HT29 colon and in the experiment with BT-549 breast was above 10 µM throughout. Also, the TGI with COLO 205 colon, with A549 NSCLC, in the experiment with ACHN renal, with U251 CNS, in the experiment with NCI-H522 lung and in the experiment on OVCAR-3 ovarian was above 10 µM throughout. Besides, the TGI in the experiment on TK-10 renal, with HCT-15 colon, in the experiment with SN12C renal, with NCI-H23 lung and in the experiment on MCF7 breast was above 10 µM throughout.
On to `Cc1ccc(-n2[nH]nc(C#N)c2=O)cc1`, for which the TGI with SK-MEL-28 melanoma, in the experiment on T-47D breast, in the experiment with SNB-19 CNS, with HT29 colon, with BT-549 breast and in the experiment on COLO 205 colon was above 100 µM throughout. For the same compound, the TGI in the experiment on HL-60(TB) leukemia, in the experiment with A549 NSCLC, in the experiment with ACHN renal, in the experiment with EKVX NSCLC, in the experiment on U251 CNS and in the experiment with NCI-H522 lung was above 100 µM throughout. Besides, the TGI in the experiment with OVCAR-3 ovarian, with TK-10 renal, in the experiment on HCT-15 colon, in the experiment with SN12C renal, in the experiment with NCI-H23 lung and in the experiment with MCF7 breast was above 100 µM in each case.
